Experimental findings from patent US20020049205A1, “Pyrazole antimicrobial agents” (priority 2000, published 2002) are described below.

The structures appear in SMILES notation. Some results are limits rather than exact numbers.

For assay [1], the system named is S. au. The assay is described as follows: Minimum Inhibitory Concentration assay, S. au. The format is cell-based. Particulars: LB medium, 16 hours, 37° C. The method, then: (§1) For Minimum Inhibitory Concentration (MIC) determinations for selected bacteria, log phase growing bacteria are re-suspended at 1×10^5 bacteria per mL in LB medium. The compound is added and two-fold dilutions are made. The final volume in the 96-well plate is about 100 μL. The plate is incubated at 37° C. in the dark with shaking. After 16 hours of incubation, growth is monitored by reading A600 or by visual inspection. MIC is defined as the minimum concentration of drug resulting in inhibition of visible growth of bacterial under the conditions described (above) in National Committee for Clinical Laboratory Standards 1993. Methods for dilution antimicrobial susceptibility tests for bacteria that grow aerobically. Approved standard M7-A3; National Committee for Clinical Laboratory Standards: Villanova, Pa.
as §1, with “MIC” for “Minimum Inhibitory Concentration (MIC)”

Assay [2] relates to B. su. Description: Minimum Inhibitory Concentration assay, B. su. In kind it is cell-based. The note with it: LB medium, 16 hours, 37° C. The method, then:
as §1
as §1, with “MIC” for “Minimum Inhibitory Concentration (MIC)”

Assay [3] concerns E.c(tolC). Description: Minimum Inhibitory Concentration assay, E.c(tolC). The format is cell-based. The note with it: 16 h, read-out: MIC (μM) E.c(tolC). The method, then:
as §1
as §1, with “MIC” for “Minimum Inhibitory Concentration (MIC)”

Assay [4] addresses T1, Sigma^70 saturated E. coli RNA Polymerase (Escherichia coli, UniProt P0A7Z4+P0A800+P0A8T7+P0A8V2).
T1 construct: purchased Epicenter
Description: IC50 assay, inhibition of RNA polymerase. In kind it is biochemical. The method, then:
One common assay involves evaluation of the compounds as RNA polymerase inhibitors. In this assay, buffer (250 mM KCl, 5% glycerol, 10 mM MgCl2, 0.1 mg/ml BSA) is combined with 6 mM β-M.E., PT5 DNA template, and 1.3 μg/rxn Sigma^70 saturated E. coli RNA Polymerase (Epicenter). The compound is then added in a manner not to exceed 5% DMSO. Nucleotide triphosphates are then added at the following concentration: 250 μM ATP, CTP and UTP with 100 μM cold CTP and 50 μM α-^32P CTP. The mixture is incubated for 10 min at about 37° C. A [2×] loading buffer is added and the mixture is then run on a 6% urea denaturing PAGE until bromophenol blue reaches the edge of plate. The gel is soaked (about 20 minutes in 10% MeOH and 10% acetic acid, to remove urea), then dried (about 55 minutes at about 85° C. (BioRad Gel Drier)) and exposed to a Phospho Imaging Plate for 1 hour. The plate is then read on a Fujix Bas1000 Imaging System and quantified using MacBas v2.0 software. An IC50 (in μM) can be calculated as the concentration of a drug which reduces the enzyme activity to 50% of the control.
In this assay, buffer (250 mM KCl, 5% Glycerol, 10 mM MgCl2, 0.1 mg/ml bovine serum albumin (BSA)) is combined with 6 mM β-mercaptoethanol, PT5 DNA template, and 1.3 μg/rxn Sigma^70 saturated E. coli RNA Polymerase (obtained from Epicenter). The compound is then added in a manner not to exceed 5% DMSO. Nucleotide triphosphates are then added at the following concentration: 250 μM ATP, CTP and UTP with 100 μM cold CTP and 50 μM α-32P CTP. The mixture is incubated for 10 min at about 37° C. A [2×] loading buffer is added and the mixture is then run on a 6% urea denaturing PAGE until bromophenol blue reaches the edge of plate. The gel is soaked (about 20 minutes in 10% MeOH and 10% acetic acid, to remove urea), then dried (about 55 minutes at about 85° C. (BioRad Gel Drier)) and exposed to a Phospho Imaging Plate for 1 hour. The plate is then read on a Fujix Bas1000 Imaging System and quantified using MacBas v2.0 software. An IC50 (in μM) can be calculated as the concentration of a compound of the invention that reduces the enzyme activity to 50% of the control. For the sake of clarity, the above-described assay is used to determine the IC50 values referenced in the claims. However, the skilled artisan will recognize that other methods can be used to determine an IC50 value.

Setting [5] is: Table 1, compounds of Formula 1.

T1 sequence (P0A8V2 whole entry): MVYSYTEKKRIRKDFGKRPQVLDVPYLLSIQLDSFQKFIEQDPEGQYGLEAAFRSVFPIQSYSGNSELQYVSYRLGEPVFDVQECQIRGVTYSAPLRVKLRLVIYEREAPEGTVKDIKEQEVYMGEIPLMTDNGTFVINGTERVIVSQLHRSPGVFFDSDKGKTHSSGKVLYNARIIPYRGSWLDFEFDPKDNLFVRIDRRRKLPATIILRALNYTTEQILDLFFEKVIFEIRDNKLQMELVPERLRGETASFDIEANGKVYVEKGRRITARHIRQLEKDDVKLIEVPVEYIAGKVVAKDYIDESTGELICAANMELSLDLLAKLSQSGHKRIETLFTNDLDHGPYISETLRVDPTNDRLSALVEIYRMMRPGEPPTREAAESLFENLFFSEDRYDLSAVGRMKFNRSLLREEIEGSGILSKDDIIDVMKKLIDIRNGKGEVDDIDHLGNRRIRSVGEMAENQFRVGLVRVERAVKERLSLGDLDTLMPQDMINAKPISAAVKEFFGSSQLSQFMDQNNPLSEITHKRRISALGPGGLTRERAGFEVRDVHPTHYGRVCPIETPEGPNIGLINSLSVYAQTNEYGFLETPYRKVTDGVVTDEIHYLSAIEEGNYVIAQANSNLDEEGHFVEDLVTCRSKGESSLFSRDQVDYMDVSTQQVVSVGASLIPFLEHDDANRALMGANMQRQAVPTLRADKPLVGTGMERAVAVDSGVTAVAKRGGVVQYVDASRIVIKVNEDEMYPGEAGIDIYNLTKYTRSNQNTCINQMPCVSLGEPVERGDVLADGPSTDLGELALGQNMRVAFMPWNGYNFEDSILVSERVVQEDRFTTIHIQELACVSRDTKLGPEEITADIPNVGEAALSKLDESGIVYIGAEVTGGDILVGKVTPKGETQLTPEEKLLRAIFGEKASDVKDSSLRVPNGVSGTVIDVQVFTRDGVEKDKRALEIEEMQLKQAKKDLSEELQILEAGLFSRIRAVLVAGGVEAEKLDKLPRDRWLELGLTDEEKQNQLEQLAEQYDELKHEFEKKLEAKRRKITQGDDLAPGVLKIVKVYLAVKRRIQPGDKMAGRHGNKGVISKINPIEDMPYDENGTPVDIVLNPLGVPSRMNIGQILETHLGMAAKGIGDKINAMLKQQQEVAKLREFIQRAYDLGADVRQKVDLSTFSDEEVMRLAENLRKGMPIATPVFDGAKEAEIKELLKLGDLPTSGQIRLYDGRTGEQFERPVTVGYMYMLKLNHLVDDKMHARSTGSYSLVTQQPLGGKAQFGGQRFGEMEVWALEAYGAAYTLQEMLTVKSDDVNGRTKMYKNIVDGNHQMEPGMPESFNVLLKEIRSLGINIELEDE
T1 sequence (P0A8T7 whole entry): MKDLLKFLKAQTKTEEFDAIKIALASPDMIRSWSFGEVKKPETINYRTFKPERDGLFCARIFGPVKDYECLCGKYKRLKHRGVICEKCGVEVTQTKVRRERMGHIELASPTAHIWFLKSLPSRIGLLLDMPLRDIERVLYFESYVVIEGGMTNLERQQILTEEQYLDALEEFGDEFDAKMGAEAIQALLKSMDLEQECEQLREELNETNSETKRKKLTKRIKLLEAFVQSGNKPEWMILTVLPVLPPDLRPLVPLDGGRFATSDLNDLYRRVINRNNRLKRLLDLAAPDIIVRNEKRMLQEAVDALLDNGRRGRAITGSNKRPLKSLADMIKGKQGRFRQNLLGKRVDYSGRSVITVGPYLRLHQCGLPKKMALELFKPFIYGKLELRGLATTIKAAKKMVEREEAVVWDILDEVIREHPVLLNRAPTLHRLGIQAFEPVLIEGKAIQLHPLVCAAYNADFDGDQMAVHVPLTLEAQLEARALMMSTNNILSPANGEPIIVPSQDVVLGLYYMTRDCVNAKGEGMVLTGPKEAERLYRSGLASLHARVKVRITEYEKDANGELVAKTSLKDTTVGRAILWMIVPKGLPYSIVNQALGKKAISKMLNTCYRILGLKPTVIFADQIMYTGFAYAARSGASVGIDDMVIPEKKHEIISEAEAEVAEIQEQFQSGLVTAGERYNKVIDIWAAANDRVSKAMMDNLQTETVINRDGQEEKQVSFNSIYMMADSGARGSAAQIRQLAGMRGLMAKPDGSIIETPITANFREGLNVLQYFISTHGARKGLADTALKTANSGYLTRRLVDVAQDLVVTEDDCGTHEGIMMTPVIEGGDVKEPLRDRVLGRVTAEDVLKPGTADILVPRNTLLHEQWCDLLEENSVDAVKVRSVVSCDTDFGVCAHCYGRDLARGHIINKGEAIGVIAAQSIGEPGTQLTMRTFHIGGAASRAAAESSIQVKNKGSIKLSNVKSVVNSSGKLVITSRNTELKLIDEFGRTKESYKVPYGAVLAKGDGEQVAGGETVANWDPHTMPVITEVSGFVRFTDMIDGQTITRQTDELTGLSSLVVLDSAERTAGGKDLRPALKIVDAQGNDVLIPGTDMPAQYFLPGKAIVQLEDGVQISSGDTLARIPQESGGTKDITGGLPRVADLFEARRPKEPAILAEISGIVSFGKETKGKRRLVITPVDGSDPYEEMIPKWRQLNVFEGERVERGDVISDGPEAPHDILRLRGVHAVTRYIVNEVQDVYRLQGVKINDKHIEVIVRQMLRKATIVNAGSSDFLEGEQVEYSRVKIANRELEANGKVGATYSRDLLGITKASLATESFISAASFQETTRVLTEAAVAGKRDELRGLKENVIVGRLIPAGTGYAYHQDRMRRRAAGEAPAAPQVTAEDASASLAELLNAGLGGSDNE
T1 sequence (P0A7Z4 whole entry): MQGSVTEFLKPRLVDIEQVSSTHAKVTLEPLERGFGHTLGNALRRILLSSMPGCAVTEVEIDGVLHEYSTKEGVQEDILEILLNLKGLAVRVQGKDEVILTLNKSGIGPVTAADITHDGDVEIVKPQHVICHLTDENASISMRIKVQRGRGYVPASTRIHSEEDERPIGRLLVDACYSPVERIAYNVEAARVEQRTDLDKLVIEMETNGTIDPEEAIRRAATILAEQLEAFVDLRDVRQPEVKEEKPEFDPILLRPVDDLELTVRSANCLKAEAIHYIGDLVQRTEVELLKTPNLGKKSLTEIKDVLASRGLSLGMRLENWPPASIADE
T1 sequence (P0A800 whole entry): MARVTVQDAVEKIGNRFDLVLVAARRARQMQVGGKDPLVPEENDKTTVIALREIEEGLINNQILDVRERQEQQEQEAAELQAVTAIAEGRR

With `CS(=O)(=O)Nc1ccc(CCNc2ccc(-c3c[nH]nc3-c3ccc(F)cc3)cc2C(F)(F)F)cc1` [Example 23], the MIC in assay [1] (Table 1), in assay [2] (Table 1) and in assay [3] was greater than 500 µM throughout. The IC50 in assay [4] (setting [5]) is greater than 500 µM.

For `FC(F)(F)c1cc(-c2cn[nH]c2-c2ccccc2)ccc1Cl` [Example 10], the minimal inhibitory concentration (MIC) in assay [1] (Table 1), in assay [2] (Table 1) and in assay [3] was less than 500 µM in each case. Besides, the IC50 in assay [4] (setting [5]) is less than 500 µM.

`Clc1cccc(-c2[nH]ncc2-c2ccc(Cl)c(Cl)c2)c1` [Example 8]: the MIC in assay [1] (Table 1), in assay [2] (Table 1) and in assay [3] was less than 500 µM in each case. In assay [4] (setting [5]), this molecule displayed an IC50 of less than 500 µM.

With `COc1cccc(-c2[nH]ncc2-c2ccccc2)c1` [Example 2], the MIC in assay [1] (Table 1), in assay [2] (Table 1) and in assay [3] was less than 500 µM throughout. This molecule showed a half-maximal inhibitory concentration (IC50) in assay [4] (setting [5]) greater than 500 µM.

In the case of `Clc1ccc(-c2[nH]ncc2-c2ccccc2)cc1Cl` [Example 4], the MIC in assay [1] (Table 1), in assay [2] (Table 1) and in assay [3] was less than 500 µM throughout. In addition, in assay [4] (setting [5]), the half-maximal inhibitory concentration (IC50) is greater than 500 µM.

Take `Fc1ccc(-c2n[nH]cc2-c2cc(F)cc(C(F)(F)F)c2)cc1` [Example 26]: the MIC in assay [1] (Table 1), in assay [2] (Table 1) and in assay [3] was less than 500 µM each time. The same molecule registered an IC50 in assay [4] (setting [5]) of less than 500 µM.

As for `O=c1[nH][nH]c(-c2cccc(C(F)(F)F)c2)c1-c1ccccc1` [Example 14, 4-phenyl-5-(3-trifluoromethylphenyl)-1,2-dihydropyrazol-3-one], the MIC in assay [1] (Table 2), in assay [2] (Table 2) and in assay [3] was less than 500 µM in each case. Further, the IC50 in assay [4] (Table 2, compounds of Formula 13) is less than 500 µM.

On to `FC(F)(F)c1cc(-c2cn[nH]c2-c2cccc(Cl)c2)ccc1N1CCCC1` [Example 12], for which the minimum inhibitory concentration (MIC) in assay [1] (Table 1), in assay [2] (Table 1) and in assay [3] was less than 500 µM throughout. In addition, the half-maximal inhibitory concentration (IC50) in assay [4] (setting [5]) was greater than 500 µM.

For `NS(=O)(=O)c1ccc(CCNc2ccc(-c3c[nH]nc3-c3ccc(F)cc3)cc2C(F)(F)F)cc1` [Example 22], the minimum inhibitory concentration (MIC) in assay [1] (Table 1), in assay [2] (Table 1) and in assay [3] was less than 500 µM in each case. The molecule further yielded a half-inhibitory concentration (IC50) in assay [4] (setting [5]) of less than 500 µM.
